# Source: US8580728B2, “Use of fragrance compositions for the prevention of the development of indole base malodours from fecal and urine based soils” (Takasago International Corporation, priority 2006, dated 2013)
# Assay: Decrease of fragrance compound concentration during the indole inhibition test (GCMS)
# Assay type: physicochemical
# Design: key: Y = Yes
# Settings: 24 hours in fresh human urine, room temperature; for Decrease in Fragrance Compounds after 24 hours (%): 0-30%: category 0-30% decrease; for Decrease in Fragrance Compounds after 24 hours (%): >60%: category >60% decrease
# Procedure: Advantageously, the appropriate fragrance compounds may be selected by using the following preferred indole inhibition test which comprises the following steps: • A) 0.02 g of fragrance and 0.02 g of Tergitol 15-s-12 was added to 7 g of fresh human urine in a 20 ml Headspace vial sealed with a PTFE faced septum and well mixed for 10 minutes using a magnetic stirrer. For a blank to test the suitability of a batch of fresh human urine, 7 g of human urine was used with 0.02 g of demineralised water and 0.02 g of Tergitol 15-s-12. If a control was required, to test the efficacy of product base for example, the control contained 7 g of human urine to which was added 0.02 g of fragrance, minus the active agents and 0.02 g of Tergitol 15-s-12. • B) The vials are placed in an autosampler tray at room temperature. • C) At different times the headspace in the vials is sampled for 5 minutes at 35° C. by an SPME fibre (PDMS fibre ex Supelco) after 10 minutes at 35° C. (incubation time). • D) The SPME fibre is desorbed 1 minute at 265° C. from a CTC Combipal autosampler and injected in splitless mode onto an Agilent GC-MS 5973N with a HP-INNOWAX column (30 m×0.25×0.25). (Oven conditions: 50° C. during 2 min-to 250° C. at 10° C./min-250° C. during 5 minutes). • E) Under the above GC-MS conditions, indole has a retention time of 19.14 minutes, and can be recognised by its characteristic ions (m/z 117, m/z 89 and m/z 90). • F) In the range of values determined in this work, the area of the indole peak (117) is linearly related to the actual concentration in the vial, and was used without further correction to establish the concentration of indole in “Active” and “Blank” and if present any “Control” fragrances. • G) The material is deemed to be active if the indole concentration in the test sample is below 0.01 ppm (wt/wt) after 24 hours incubation at room temperature and the indole in the blank samples is between 0.25 ppm (wt/wt) and 1.25 ppm (wt/wt) indole after 24 hours storage at room temperature. • H) The change in the active ingredient concentration is determined by comparing measurements at the start of the experiment and after 24 hours using appropriate characteristic ions.
# This can be determined by measuring the fragrance concentration in the sample containing the test cocktail at the start and end of the indole inhibition test as described in step I of the test. If the difference between the measurements is less than 60% preferably less than 30% then the material is considered as not to have changed sufficiently to alter the fragrance note and to be particularly preferred.
# A sample of fresh human urine is divided into equal portions and a fragrance containing one or more of the effective materials was added as described in the Indole Inhibition Test. […] The samples were stored and after 24 hours the indole content and fragrance active content is measured by gas chromatography with mass spectrometric (GCMS) detection. Those formulations containing active ingredients prevented the formation of indole while both the unfragranced and the alcohol containing control samples had much greater quantities of indole present. Also for the active compounds a GCMS measurement indicated the extent to which the compound was itself consumed as part of the process. In table 2 the decrease in fragrance components has been classified into 3 categories and the letter Y indicates the appropriate category for the compounds which have been measured. The absence of a letter Y in any category means that the decrease has not been measured for that compound.
Compound,Decrease in Fragrance Compounds after 24 hours (%): 0-30%,also measured
O=C/C=C/c1ccccc1 [Cinnamic aldehyde],Y,–
CCC/C=C/C=O [Trans 2 hexenal],–,Decrease in Fragrance Compounds after 24 hours (%): 0-60% (category 0-60% decrease): Y
C=C(C)C1CC=C(C=O)CC1 (stereo not shown) [Perilla aldehyde],Y,–
CCCCCCCCCCC=O [Aldehyde C11],–,Decrease in Fragrance Compounds after 24 hours (%): >60%: Y
O=Cc1ccccc1 [Benzaldehyde],Y,–
CC(C)=CCCC(C)=CC=O [Citral],Y,–
CCc1occc(=O)c1O [Veltol Plus],–,Decrease in Fragrance Compounds after 24 hours (%): >60%: Y
